The record followed here is article PMC6040060, “Identification of a new alanine racemase in Salmonella Enteritidis and its contribution to pathogenesis” (Gut Pathogens, 2018).

For test [1], the system named is T1, DadX.
T1 construct: pET28a-dadX (NheI/XhoI), N-terminal 6xHis tag, E. coli BL21(DE3) Codon Plus, Ni-NTA purified
The test is described as follows: coupled spectrophotometric assay, NADH at […] nm (L-alanine dehydrogenase). In kind it is biochemical, Salmonella enterica subsp. enterica serovar Enteritidis. The note with it: D to L direction; 10 μM PLP, 2.5 mM NAD+, Tris-HCl pH 8.0, 37 °C.

The subject of test [2] is T2, SEN3897.
T2 construct: gene alr
The note with it: read-out: D → L / Km; D to L direction; 10 μM PLP, 2.5 mM NAD+, Tris-HCl pH 8.0, 37 °C.

Test [3] concerns T1, DadX. The test is described as follows: coupled spectrophotometric assay, NADH at […] nm (D-amino acid aminotransferase / L-lactate dehydrogenase). It counts as biochemical, Salmonella enterica subsp. enterica serovar Enteritidis. The note with it: L to D direction; 10 μM PLP, Tris-HCl pH 8.0, 37 °C.
Test [4] concerns T2, SEN3897. The note with it: read-out: L → D / Km; L to D direction; 10 μM PLP, Tris-HCl pH 8.0, 37 °C.

Read-outs that look alike come from different tables or passages of the source.

Regarding `C[C@@H](N)C(=O)O` [D-alanine], the Km in the test with DadX [1] stood at 52.8 ± 3 mM; in the test on SEN3897 [2], 35 ± 6 mM.

With `C[C@H](N)C(=O)O` [L-alanine], the results for the Km with DadX [3] and with SEN3897 [4] were 58.9 ± 2.7 mM and 89.1 ± 10.2 mM, respectively.
